Patent US11911436B2, “Amphiphilic peptide chaperones and methods of use” (priority 2021, dated 2024)
Marks after values point to notes of the source that are not given here.

Assays:
[1] = system: C. elegans wild-type (N2 strain); assay: Paraquat (PQ)-induced oxidative stress survival; type: in vivo; details: five-day old N2 worms, 50 μg peptide 24 hours, 50 mM PQ
Method: Five-day old N2 worms were pretreated with 50 μg peptide for 24 hours and subjected to 50 mM PQ. The survival of the worms was monitored every hour under a microscope until the end of survival. […] The median survival value (50% survival) in CPPRAMC, CPAMC, and CP-SC (control) peptides corresponds to 9.6 h, 8.9 h and 5.9 h, respectively, as compared to vehicle control (5.5 h) (FIG. 14).

[2] = system: HEK293 IL-6 reporter cells; assay: IL-6 signaling, STAT3-stimulated SEAP reporter; type: cell-based; details: human recombinant IL-6 and peptides, 1 hr
Method: HEK293 IL-6 reporter cells were treated with human recombinant IL-6 and the peptides for 1 hr. The STAT3-stimulated SEAP activity in the culture supernatant was measured using QUANTI-Blue solution (InvivoGen) (FIG. 19B).

[3] = system: wild-type C. elegans (N2); assay: C. elegans N2 lifespan assay at 20° C. with peptide feeding; type: in vivo; details: N2 worms
Method: A schematic of an assay of C. elegans N2 lifespan at 20° C. is shown (FIG. 10A). This involved peptide treatment (50 μg) with E. coli OP50 as a food source. Plates were changed every second day with 50 μg fresh peptide and OP50. Scoring of survival was done every day to the last day of survival. 50 mM FUdR was added in experimental plates between D1 and D5 to prevent progeny production.

C. elegans (N2 strain) = assay: Thermotolerance assay, continuous heat stress at 35° C.; type: in vivo; details: N2 worms
Method: The lifespan of wild type C. elegans with and without peptide at a restrictive temperature was measured.
A schematic representation of the thermotolerance assay used is shown (FIG. 11A). 24 hours of 50 μg peptide treatment at 20° C. of a synchronized population of wild type C. elegans was followed by a continuous heat stress at 35° C. Worms were scored every two hours for 24 hours for survival.

CL4176 C. elegans = assay: CL4176 Aβ-induced paralysis and survival assay; type: in vivo; details: CL4176 worms
Method: CL4176 C. elegans is a temperature sensitive strain. Worms are maintained at 15° C. and shifted to increased temperature to cause Aβ-induced paralysis in adults. This has been used as a C. elegans model of Alzheimer's disease.
A scheme of a paralysis assay with CL4176 worms is shown (FIG. 13A). Peptide treatment began on CL4176 embryos and continued throughout the experiment. After 2 days at 15° C., the temperature was increased to the restrictive temperature of 25° C. Worms were scored for survival and paralysis.
Example images of paralyzed and non-paralyzed worms are shown (FIG. 13C).

human red blood cells = assay: Melittin-induced hemolysis of human RBC; type: cell-based; details: 2% human RBC, room temperature 30 min, OD 540 nm
Method: Hemolysis of human red blood cells with melittin was measured with varying concentrations of CPAMC (FIG. 3). To 0.3 mL of 2% human RBC (red blood cell) suspension was added 2 μM melittin and/or peptides taken in 0.7 mL of PBS. The tubes were incubated at room temperature for 30 min, centrifuged, and the OD of the supernatant was measured at 540 nm. PBS and PBS containing 0.1% TritonX-100 served as negative and positive control, respectively.
The protective effect of Myr-CPAMC peptide of human red blood cells (RBC) from melittin-induced hemolysis was also examined. To 0.3 mL of 2% human RBC suspension was added to melittin and/or peptide taken in 0.7 mL of PBS. The tubes were incubated at room temperature for 30 min, centrifuged (FIG. 5A) and the OD of the supernatant was measured at 540 nm. PBS and PBS containing 0.1% TritonX-100 served as negative and positive control, respectively.

ARPE-19 cells = assay: Sodium iodate-induced oxidative stress, DCFH-DA staining; type: cell-based; details: 7.5 mM sodium iodate, 24 hrs
Method: The ability of CPPRAMC and CPAMC to suppress sodium iodate-induced oxidative stress in ARPE-19 cells was also assessed. ARPE-19 cells seeded on a 96-well plate were treated with 7.5 mM of sodium iodate and peptides in 100 μl of serum-free DMEM/F12 media for 24 hrs. The cells were then stained with 10 μM DCFH-DA for 30 min at 37° C. in the dark and the cells were observed under the EVOS FL Auto2 imaging system (Thermo Fisher Scientific, Waltham, Mass., USA) with 10× magnification.

C. elegans (N2) worms = assay: Juglone (JG)-induced oxidative stress survival; type: in vivo; details: N2 worms at day 5, 50 μg peptide 24 h, 50 μM JG
Method: N2 worms at day 5 pretreated for 24 h with 50 μg CPAMC or CP-SC (control) and subjected to 50 μM JG. Survival was checked every hour under a microscope until the end of survival. The median survival value in CPAMC and CP-SC (control) peptides corresponds to 7.3 h and 5.9 h, respectively, compared to vehicle control (4.9 h) (FIG. 15).

[4] = system: human primary lens epithelial (HLE-1°) cells; assay: Melittin cytotoxicity, cell viability imaging; type: cell-based; details: 1 μM melittin, 45 min
Method: The ability of CPAMC peptide to block the cytotoxic action of melittin on human primary lens epithelial (HLE-1°) cells was investigated. Cell viability imaging was performed with dead cells identified by fluorescent staining. HLE-1° cells cultured on a 96-well plate were treated with 1 μM melittin and/or different concentrations of CPAMC peptide for 45 min. At the end of the incubation, cell viability imaging was done using the EarlyTox cell integrity kit (Molecular Devices, Sunnyvale, Calif.) (FIG. 4A). The percentage of dead cells in each sample was calculated from the live/dead cell imaging data using the Softmax Pro software (FIG. 4B).

CL2006 C. elegans = assay: CL2006 lifespan at 20° C. (paralysis and death model); type: in vivo; details: CL2006 worms, 50 μg peptide
Method: CL2006 C. elegans were used as a paralysis and death model. Worms are maintained at 15° C., with adult onset paralysis induced at 20° C.
50 μg CPAMC and CPPRAMC peptide or controls were added to CL2006 worms, and the fraction left alive over time at the restrictive temperature of 20° C. was quantified (FIG. 12). […] (FIG. 12).

CH3-LFVIFLVHFSPGRDEDKDEK-NH2 (Me-LFVIFLVHFSPGRDEDKDEK-NH2) [CPAMC, Cell-penetrable, amphiphilic mini chaperone synthesized with L-amino acids]
median survival value (50% survival) [1]: 8.9 h
IL-6 signaling (STAT3-stimulated SEAP activity) [2]: IL-6 signaling is also suppressed
Median Lifespan (Days ± SE) ([3]; 50 μg peptide with E. coli OP50): 18.23 ± 0.25 days
Increase in median survival (%) ([3]; 50 μg peptide, vs control): 36* %
% increase in survival (C. elegans (N2 strain); 35° C., 50 μg peptide, vs control): 31* %
Median survival ± SE (hours at 35° C.) (C. elegans (N2 strain); 24 hours 50 μg peptide at 20° C., then 35° C.): 11.0 ± 0.4 h
delay of Aβ-induced paralysis (CL4176 C. elegans; 25° C.): delay of CL4176 worm paralysis compared to controls
% increase in median survival (CL4176 C. elegans; 25° C., vs control): 12%
Median survival Hours ± SE (CL4176 C. elegans; 2 days at 15° C., then 25° C.): 49.6 ± 0.5 h
hemolysis by melittin in presence of peptide (human red blood cells): Hemolysis decreased as concentration of CPAMC increased
oxidative stress by DCFH-DA staining (ARPE-19 cells): reduce or block the oxidative stress induced by sodium iodate
median survival value (C. elegans (N2) worms): 7.3 h
percentage of dead cells with melittin and peptide [4]: blocks the cytotoxic action of melittin
Median survival ± SE (days at 20° C.) (CL2006 C. elegans): 7.7 ± 0.28 days
% increase in survival (CL2006 C. elegans; vs control): 11.6%
